This note sets out measurements from patent US20230117324A1, “OXAZINE MONOACYLGLYCEROL LIPASE (MAGL) INHIBITORS” (Hoffmann-La Roche Inc., priority 2018, published 2023).

This assay addresses T1, MAGL (Homo sapiens, UniProt Q99685).
T1 sequence (Q99685 1-303): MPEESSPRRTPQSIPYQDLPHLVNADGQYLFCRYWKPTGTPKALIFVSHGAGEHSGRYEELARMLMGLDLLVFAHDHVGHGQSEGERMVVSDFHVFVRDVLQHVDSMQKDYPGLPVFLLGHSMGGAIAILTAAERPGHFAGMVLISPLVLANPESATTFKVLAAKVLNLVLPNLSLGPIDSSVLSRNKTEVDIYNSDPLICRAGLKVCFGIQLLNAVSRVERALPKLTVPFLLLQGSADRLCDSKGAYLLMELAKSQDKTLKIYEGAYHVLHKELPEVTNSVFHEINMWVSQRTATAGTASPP
The assay can be described thus: MAGL inhibition, 2-AG assay (hydrolysis of 2-arachidonoylglycerol, arachidonic acid by mass spectrometry). The class given is biochemical. The settings on record: 2-AG assay (footnote [b]). The gist of the method:
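Hydrolysis of 8 μM 2-arachidonoylglycerol by […] was run for 30 min at RT after a 15 min compound preincubation, in Tris/EDTA/Tween buffer. Test compounds spanned […]. The product was measured by online SPE-MS/MS (transitions 303.1→259.1 and 311.1→267.0), and activity was derived from the arachidonic acid/d8-arachidonic acid signal ratio.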
In turn, `Cn1nc(OC(c2ccc(F)cc2)C2CCN(C(=O)N3CC[C@@H]4OCC(=O)N[C@@H]4C3)CC2)cc1C(F)(F)F` (stereo partly drawn) [Example 251, (4aR,8aS)-6-(4-((4-Fluorophenyl)((1-methyl-5-(trifluoromethyl)-1H-pyrazol-3-yl)oxy)methyl)piperidine-1-carbonyl)hexahydro-2H-pyrido[4,3-b][1,4]oxazin-3(4H)-one] showed an IC50 of 1 nM.

With `NCCOc1cccc(C(c2ccccc2)C2CCN(C(=O)N3CC[C@@H]4OCC(=O)N[C@@H]4C3)CC2)c1` (stereo partly drawn) [Example 252, (4aR,8aS)-6-[4-[[3-(2-Aminoethoxy)phenyl]-phenyl-methyl]piperidine-1-carbonyl]-4,4a,5,7,8,8a-hexahydropyrido[4,3-b][1,4]oxazin-3-one], half-maximal inhibition (IC50) required 2 nM.

With `O=C1CO[C@H]2CCN(C(=O)N3CC(c4nnc(-c5ccc(Cl)cc5Cl)o4)C3)C[C@H]2N1` [Example 253, (4aR,8aS)-6-[3-[5-(2,4-Dichlorophenyl)-1,3,4-oxadiazol-2-yl]azetidine-1-carbonyl]-4,4a,5,7,8,8a-hexahydropyrido[4,3-b][1,4]oxazin-3-one], the IC50 was determined as 4 nM.

The compound `O=C1CO[C@H]2CCN(C(=O)N3CC(c4ccc(C(F)(F)F)c(F)c4)C3)C[C@H]2N1` [Example 254] had an IC50 of 82 nM.

Take `CC(C)(C)OC(=O)NCCOCCC(=O)NCCOc1cccc(C(c2ccccc2)C2CCN(C(=O)N3CC[C@@H]4OCC(=O)N[C@@H]4C3)CC2)c1` (stereo partly drawn) [Example 255, tert-Butyl N-[2-[3-[2-[3-[[1-[(4aR,8aS)-3-oxo-4,4a,5,7,8,8a-hexahydropyrido[4,3-b][1,4]oxazine-6-carbonyl]-4-piperidyl]-phenyl-methyl]phenoxy]ethylamino]-3-oxo-propoxy]ethyl]carbamate]: the IC50 stood at 2 nM.

`CC(C)(C)OC(=O)NCCOCCOCCC(=O)NCCOc1cccc(C(c2ccccc2)C2CCN(C(=O)N3CC[C@@H]4OCC(=O)N[C@@H]4C3)CC2)c1` (stereo partly drawn) [Example 256, tert-Butyl N-[2-[2-[3-[2-[3-[[1-[(4aR,8aS)-3-oxo-4,4a,5,7,8,8a-hexahydropyrido[4,3-b][1,4]oxazine-6-carbonyl]-4-piperidyl]-phenyl-methyl]phenoxy]ethylamino]-3-oxo-propoxy]ethoxy]ethyl]carbamate] showed an IC50 of 2 nM.

`O=C1CO[C@H]2CCN(C(=O)N3CC(c4ccn(-c5ccc(Cl)cc5Cl)n4)C3)C[C@H]2N1` [Example 257, (4aR,8aS)-6-[3-[1-(2,4-Dichlorophenyl)pyrazol-3-yl]azetidine-1-carbonyl]-4,4a,5,7,8,8a-hexahydropyrido[4,3-b][1,4]oxazin-3-one] had an IC50 of 233 nM.

Turning to `CCCOc1ccc(C2CN(C(=O)N3CC[C@@H]4OCC(=O)N[C@@H]4C3)C2)cc1` [Example 258, (4aR,8aS)-6-[3-(4-Propoxyphenyl)azetidine-1-carbonyl]-4,4a,5,7,8,8a-hexahydropyrido[4,3-b][1,4]oxazin-3-one], the IC50 stood at 5 nM.

For `Cc1ccc(C2CN(C(=O)N3CC[C@@H]4OCC(=O)N[C@@H]4C3)C2)cc1C` [Example 259, (4aR,8aS)-6-[3-(3,4-Dimethylphenyl)azetidine-1-carbonyl]-4,4a,5,7,8,8a-hexahydropyrido [4,3-b][1,4]oxazin-3-one], the IC50 amounted to 30 nM.

`CCNC(=O)c1cc(C)ccc1-c1ccc(C2CN(C(=O)N3CC[C@@H]4OCC(=O)N[C@@H]4C3)C2)cc1` [Example 260, 2-[4-[1-[(4aR,8aS)-3-Oxo-4,4a,5,7,8,8a-hexahydropyrido[4,3-b][1,4]oxazine-6-carbonyl]azetidin-3-yl]phenyl]-N-ethyl-5-methyl-benzamide] registered an IC50 of 3 nM.

Turning to `CC(C)(C)Cc1ccc(C2CN(C(=O)N3CC[C@@H]4OCC(=O)N[C@@H]4C3)C2)cc1` [Example 261, (4aR,8aS)-6-[3-[4-(2,2-Dimethylpropyl)phenyl]azetidine-1-carbonyl]-4,4a,5,7,8,8a-hexahydropyrido[4,3-b][1,4]oxazin-3-one], the IC50 came to 0.07 nM.

The compound `CC(C)(C)Oc1ccc(C2CN(C(=O)N3CC[C@@H]4OCC(=O)N[C@@H]4C3)C2)cc1` [Example 262, (4aR,8aS)-6-[3-(4-tert-Butoxyphenyl)azetidine-1-carbonyl]-4,4a,5,7,8,8a-hexahydropyrido[4,3-b][1,4]oxazin-3-one] came in with an IC50 of 1 nM.

As to `O=C1CO[C@H]2CCN(C(=O)N3CCC(N4CCc5cc(Cl)ccc54)CC3)C[C@H]2N1` [Example 263, (4aR,8aS)-6-[4-(5-Chloroindolin-1-yl)piperidine-1-carbonyl]-4,4a,5,7,8,8a-hexahydropyrido[4,3-b][1,4]oxazin-3-one], half-maximal inhibition (IC50) was put at 16 nM.

Compound `O=C1CO[C@H]2CCN(C(=O)N3CCC(N4Cc5cccc(Cl)c5C4)CC3)C[C@H]2N1` [Example 264, (4aR,8aS)-6-[4-(4-Chloroisoindolin-2-yl)piperidine-1-carbonyl]-4,4a,5,7,8,8a-hexahydropyrido[4,3-b][1,4]oxazin-3-one] registered an IC50 of 146 nM.

`O=C1CO[C@H]2CCN(C(=O)N3CCC(N4CC5(CC5)c5cc(Cl)ccc54)CC3)C[C@H]2N1` [Example 265, (4aR,8aS)-6-[4-(5′-Chlorospiro[cyclopropane-1,3′-indoline]-1′-yl)piperidine-1-carbonyl]-4,4a,5,7,8,8a-hexahydropyrido[4,3-b][1,4]oxazin-3-one]: the IC50 is 58 nM.

`O=C1CO[C@H]2CCN(C(=O)N3CC(N4Cc5cccc(Cl)c5C4)C3)C[C@H]2N1` [Example 266, (4aR,8aS)-6-[3-(4-Chloroisoindolin-2-yl)azetidine-1-carbonyl]-4,4a,5,7,8,8a-hexahydropyrido[4,3-b][1,4]oxazin-3-one] showed an IC50 of 457 nM.

With `O=C1CO[C@H]2CCN(C(=O)N3CCC(c4cn(CCO)c5ccc(Cl)cc45)CC3)C[C@@H]2N1` [Example 269, (4aS,8aS)-6-[4-[5-Chloro-1-(2-hydroxyethyl)indol-3-yl]piperidine-1-carbonyl]-4,4a,5,7,8,8a-hexahydropyrido[4,3-b][1,4]oxazin-3-one], the IC50 worked out at 530 nM.

In the case of `O=C1CO[C@H]2CCN(C(=O)N3CC(c4ccc(N5CCC(C(F)(F)F)C5)cn4)C3)C[C@H]2N1` (stereo partly drawn) [Example 270, (4aR,8aS)-6-(3-(5-(3-(Trifluoromethyl)pyrrolidin-1-yl)pyridin-2-yl)azetidine-1-carbonyl)hexahydro-2H-pyrido[4,3-b][1,4]oxazin-3(4H)-one], half-maximal inhibition (IC50) was put at 26 nM.

On to `O=C1CO[C@H]2CCN(C(=O)N3CC(c4ccc(N5CCC(C(F)(F)F)C5)nc4)C3)C[C@H]2N1` (stereo partly drawn) [Example 273, (4aR,8aS)-6-[3-[6-[3-(Trifluoromethyl)pyrrolidin-1-yl]-3-pyridyl]azetidine-1-carbonyl]-4,4a,5,7,8,8a-hexahydropyrido[4,3-b][1,4]oxazin-3-one], for which the IC50 was 2 nM.

As for `O=C1CO[C@H]2CCN(C(=O)N3CC(c4ccc(N5CCC(C(F)(F)F)C5)nc4)C3)C[C@H]2N1` (stereo partly drawn) [Example 275, (4aR,8aS)-6-[3-[6-[3S-or 3R-(trifluoromethyl)pyrrolidin-1-yl]-3-pyridyl]azetidine-1-carbonyl]-4,4a,5,7,8,8a-hexahydropyrido[4,3-b][1,4]oxazin-3-one], half-maximal inhibition (IC50) was put at 4 nM.

`O=C1CO[C@H]2CCN(C(=O)N3CC(c4ccc(C5CCCOC5)cc4)C3)C[C@H]2N1` (stereo partly drawn) [Example 276, (4aR,8aS)-6-[3-(4-Tetrahydropyran-3-ylphenyl)azetidine-1-carbonyl]-4,4a,5,7,8,8a-hexahydropyrido[4,3-b][1,4]oxazin-3-one] displayed an IC50 of 4 nM.

On to `COc1cc(CC(F)(F)F)ccc1C1CN(C(=O)N2CC[C@@H]3OCC(=O)N[C@@H]3C2)C1` [Example 277, (4aR,8aS)-6-[3-[2-Methoxy-4-(2,2,2-trifluoroethyl)phenyl]azetidine-1-carbonyl]-4,4a,5,7,8,8a-hexahydropyrido[4,3-b][1,4]oxazin-3-one], for which the IC50 came out at 2 nM.

For the compound `CC(C)(C)COc1ccc(C2CN(C(=O)N3CC[C@@H]4OCC(=O)N[C@@H]4C3)C2)cc1` [Example 278, (4aR,8aS)-6-(3-(4-(Neopentyloxy)phenyl)azetidine-1-carbonyl)hexahydro-2H-pyrido[4,3-b][1,4]oxazin-3(4H)-one], the IC50 is 0.1 nM.

One may read the IC50 as the concentration needed to halve the response being measured. Read a high IC50 as weaker potency.
